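Briefly, cells in 96-well plates were exposed to five compound concentrations for 48 h, and endpoints were estimated by linear interpolation. GI50 marks 50% less growth.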 Active and inactive are the calls of the source. No stated cut-off is given here; in the data, active = GI50 up to about 1.1 µM and inactive = higher.
What was measured:
Experiment in all cases: NCI anticancer screen, dose series, 48 h
MCF7 = system: MCF7
K562 = system: K562
SNB-19 = system: SNB-19
IGROV-1 = system: IGROV-1
MDA-N = system: MDA-N
MDA-MB-435 = system: MDA-MB-435
RPMI-8226 = system: RPMI-8226
SF-539 = system: SF-539
UACC-257 = system: UACC-257
UACC-62 = system: UACC-62
COLO 205 = system: COLO 205
786-0 = system: 786-0
HT-29 = system: HT-29
LOX IMVI = system: LOX IMVI
NCI-H460 = system: NCI-H460
SF-295 = system: SF-295
A498 = system: A498
DU-145 = system: DU-145
HL-60 = system: HL-60
PC-3 = system: PC-3

Measured: GI50

O=C(O)CN1CCN(CC(=O)O)CCN(CC(=O)O)CCN(CC(=O)O)CC1 [TETRAXETAN]
inactive: MCF7 > 100 µM | K562 > 100 µM | SNB-19 > 100 µM | IGROV-1 > 100 µM | MDA-N > 100 µM | MDA-MB-435 > 100 µM | RPMI-8226 > 100 µM | SF-539 > 100 µM | UACC-257 > 100 µM | UACC-62 > 100 µM | COLO 205 > 100 µM | 786-0 > 100 µM | HT-29 > 100 µM | LOX IMVI > 100 µM | NCI-H460 > 100 µM | SF-295 > 100 µM | A498 > 100 µM | DU-145 > 100 µM | HL-60 > 100 µM | PC-3 > 100 µM
